Measured values taken from ChEMBL document CHEMBL4270599, “Synthesis of a 3'-C-ethynyl-β-d-ribofuranose purine nucleoside library: Discovery of C7-deazapurine analogs as potent antiproliferative nucleosides” (Eur J Med Chem, 2018).

What was measured:
Type in all cases: functional
CCRF-CEM [1] = assay: Cytotoxicity against human CCRF-CEM cells after 48 hrs by SRB assay
RPMI-8226 = assay: Cytotoxicity against human RPMI8226 cells after 48 hrs by SRB assay; settings: RPMI-8226, 48 h
NCI-H226 = assay: Cytotoxicity against human NCI-H226 cells after 48 hrs by SRB assay; settings: NCI-H226, 48 h
Malme-3M = assay: Cytotoxicity against human MALME-3M cells after 48 hrs by SRB assay
M14 = assay: Cytotoxicity against human M14 cells after 48 hrs by SRB assay; settings: M14, 48 h
MDA-MB-435 [2] = assay: Cytotoxicity against human MDA-MB-435 cells after 48 hrs by SRB assay; settings: MDA-MB-435, 48 h
OVCAR-8 = assay: Cytotoxicity against human OVCAR8 cells after 48 hrs by SRB assay; settings: OVCAR-8, 48 h
SK-OV-3 = assay: Cytotoxicity against human SKOV3 cells after 48 hrs by SRB assay; settings: SK-OV-3, 48 h
MDA-MB-468 [3] = assay: Cytotoxicity against human MDA-MB-468 cells after 48 hrs by SRB assay; settings: MDA-MB-468, 48 h
NCI-H460 = assay: Growth inhibition of human NCI-H460 cells assessed as cell growth at 10^-8 M incubated for 48 hrs by sulforhodamine B assay relative to control; settings: NCI-H460, 48 h, read-out: Activity
SF-268 = assay: Growth inhibition of human SF268 cells assessed as cell growth at 10^-8 M incubated for 48 hrs by sulforhodamine B assay relative to control; settings: SF-268, 48 h, read-out: Activity
SNB-75 = assay: Growth inhibition of human SNB75 cells assessed as cell growth at 10^-8 M incubated for 48 hrs by sulforhodamine B assay relative to control; settings: SNB-75, 48 h, read-out: Activity
PC-3 = assay: Growth inhibition of human PC3 cells assessed as cell growth at 10^-8 M incubated for 48 hrs by sulforhodamine B assay relative to control; settings: PC-3, 48 h, read-out: Activity
MCF7 = assay: Growth inhibition of human MCF7 cells assessed as cell growth at 10^-8 M incubated for 48 hrs by sulforhodamine B assay relative to control; settings: MCF7, 48 h, read-out: Activity
MDA-MB-468 [4] = assay: Growth inhibition of human MDA-MB-468 cells assessed as cell growth at 10^-8 M incubated for 48 hrs by sulforhodamine B assay relative to control; settings: MDA-MB-468, 48 h, read-out: Activity
CCRF-CEM [5] = assay: Growth inhibition of human CCRF-CEM cells assessed as cell growth at 10^-7 M incubated for 48 hrs by sulforhodamine B assay relative to control; settings: read-out: Activity
SW-620 = assay: Growth inhibition of human SW620 cells assessed as cell growth at 10^-7 M incubated for 48 hrs by sulforhodamine B assay relative to control; settings: SW-620, 48 h, read-out: Activity
LOX IMVI = assay: Growth inhibition of human LOXIMVI cells assessed as cell growth at 10^-7 M incubated for 48 hrs by sulforhodamine B assay relative to control; settings: read-out: Activity
UACC-257 = assay: Growth inhibition of human UACC257 cells assessed as cell growth at 10^-7 M incubated for 48 hrs by sulforhodamine B assay relative to control; settings: UACC-257, 48 h, read-out: Activity
OVCAR-5 [6] = assay: Growth inhibition of human OVCAR5 cells assessed as cell growth at 10^-7 M incubated for 48 hrs by sulforhodamine B assay relative to control; settings: OVCAR-5, 48 h, read-out: Activity
T47D = assay: Growth inhibition of human T47D cells assessed as cell growth at 10^-7 M incubated for 48 hrs by sulforhodamine B assay relative to control; settings: read-out: Activity
MDA-MB-435 [7] = assay: Growth inhibition of human MDA-MB-435 cells assessed as cell growth at 10^-6 M incubated for 48 hrs by sulforhodamine B assay relative to control; settings: MDA-MB-435, 48 h, read-out: Activity
NCI/ADR-RES = assay: Growth inhibition of human NCI/ADR-RES cells assessed as cell growth at 10^-6 M incubated for 48 hrs by sulforhodamine B assay relative to control; settings: read-out: Activity
MOLT-4 = assay: Growth inhibition of human MOLT4 cells assessed as cell growth at 10^-5 M incubated for 48 hrs by sulforhodamine B assay relative to control; settings: MOLT-4, 48 h, read-out: Activity
SR = assay: Growth inhibition of human SR cells assessed as cell growth at 10^-5 M incubated for 48 hrs by sulforhodamine B assay relative to control; settings: read-out: Activity
COLO 205 = assay: Growth inhibition of human COLO205 cells assessed as cell growth at 10^-5 M incubated for 48 hrs by sulforhodamine B assay relative to control; settings: COLO 205, 48 h, read-out: Activity
OVCAR-5 [8] = assay: Growth inhibition of human OVCAR5 cells assessed as cell growth at 10^-5 M incubated for 48 hrs by sulforhodamine B assay relative to control; settings: OVCAR-5, 48 h, read-out: Activity
DU-145 = assay: Growth inhibition of human DU145 cells assessed as cell growth at 10^-5 M incubated for 48 hrs by sulforhodamine B assay relative to control; settings: DU-145, 48 h, read-out: Activity
MDA-MB-231 = assay: Growth inhibition of human MDA-MB-231 cells assessed as cell growth at 10^-5 M incubated for 48 hrs by sulforhodamine B assay relative to control; settings: MDA-MB-231, 48 h, read-out: Activity
Hs-578T = assay: Growth inhibition of human Hs 578T cells assessed as cell growth at 10^-5 M incubated for 48 hrs by sulforhodamine B assay relative to control; settings: read-out: Activity
CCRF-CEM [9] = assay: Growth inhibition of human CCRF-CEM cells assessed as cell growth at 10^-4 M incubated for 48 hrs by sulforhodamine B assay relative to control; settings: read-out: Activity
KM12 = assay: Growth inhibition of human KM12 cells assessed as cell growth at 10^-4 M incubated for 48 hrs by sulforhodamine B assay relative to control; settings: KM12, 48 h, read-out: Activity
[10] = read-out: LC50 (the source's name)
[11] = read-out: pLC50 (the source's name) (converted)

C#C[C@@]1(O)[C@@H](CO)O[C@@H](n2ccc3c(N)ncnc32)[C@@H]1O
CC50 (CCRF-CEM [1]; [10]): > 100 µM
TGI (CCRF-CEM [1]; read-out: TGI): > 100 µM
GI50 (CCRF-CEM [1]; read-out: pGI50 (converted)): 2.29 µM
TGI (CCRF-CEM [1]; read-out: pTGI): > 100 µM
CC50 (RPMI-8226; [10]): > 100 µM
TGI (RPMI-8226; read-out: TGI): > 100 µM
GI50 (RPMI-8226; read-out: pGI50 (converted)): 0.776 µM
TGI (RPMI-8226; read-out: pTGI (converted)): > 100 µM
TGI (NCI-H226; read-out: TGI): 4.85 µM
GI50 (NCI-H226; read-out: pGI50 (converted)): 2.04 µM
CC50 (NCI-H226; [11]): 26.3 µM
TGI (NCI-H226; read-out: pTGI (converted)): 4.9 µM
GI50 (Malme-3M; read-out: GI50): 1.68 µM
TGI (Malme-3M; read-out: TGI): 5.55 µM
GI50 (Malme-3M; read-out: pGI50 (converted)): 1.66 µM
CC50 (Malme-3M; [11]): 30.9 µM
TGI (Malme-3M; read-out: pTGI (converted)): 5.5 µM
TGI (M14; read-out: TGI): 3 µM
GI50 (M14; read-out: pGI50 (converted)): 1.41 µM
CC50 (M14; [11]): 6.31 µM
TGI (M14; read-out: pTGI (converted)): 3.02 µM
TGI (MDA-MB-435 [2]; read-out: TGI): 3.49 µM
GI50 (MDA-MB-435 [2]; read-out: pGI50 (converted)): 1.48 µM
CC50 (MDA-MB-435 [2]; [11]): 8.13 µM
TGI (MDA-MB-435 [2]; read-out: pTGI (converted)): 3.47 µM
TGI (OVCAR-8; read-out: TGI): 4.11 µM
GI50 (OVCAR-8; read-out: pGI50 (converted)): 1.02 µM
CC50 (OVCAR-8; [11]): 34.7 µM
TGI (OVCAR-8; read-out: pTGI (converted)): 4.07 µM
TGI (SK-OV-3; read-out: TGI): 5.24 µM
GI50 (SK-OV-3; read-out: pGI50 (converted)): 1.07 µM
CC50 (SK-OV-3; [11]): > 100 µM
TGI (SK-OV-3; read-out: pTGI (converted)): 5.25 µM
TGI (MDA-MB-468 [3]; read-out: TGI): 3.33 µM
GI50 (MDA-MB-468 [3]; read-out: pGI50 (converted)): 1.29 µM
CC50 (MDA-MB-468 [3]; [11]): 8.51 µM
TGI (MDA-MB-468 [3]; read-out: pTGI (converted)): 3.31 µM
growth at 0.01 µM (NCI-H460): 89%
growth at 0.01 µM (SF-268): 99%
growth at 0.01 µM (SNB-75): 86%
growth at 0.01 µM (PC-3): 97%
growth at 0.01 µM (MCF7): 83%
growth at 0.01 µM (MDA-MB-468 [4]): 93%
growth at 0.1 µM (CCRF-CEM [5]): 101%
growth at 0.1 µM (SW-620): 77%
growth at 0.1 µM (LOX IMVI): 99%
growth at 0.1 µM (UACC-257): 105%
growth at 0.1 µM (OVCAR-5 [6]): 106%
growth at 0.1 µM (T47D): 86%
growth at 1 µM (MDA-MB-435 [7]): 73%
growth at 1 µM (NCI/ADR-RES): 45%
growth at 10 µM (MOLT-4): 2%
growth at 10 µM (SR): 15%
growth at 10 µM (COLO 205): -54%
growth at 10 µM (OVCAR-5 [8]): -8%
growth at 10 µM (DU-145): -8%
growth at 10 µM (MDA-MB-231): -20%
growth at 10 µM (Hs-578T): 19%
growth at 100 µM (CCRF-CEM [9]): 9%
growth at 100 µM (KM12): -52%
